This is an account of results in ChEMBL document CHEMBL1137363, “Discovering inhibitors of human sirtuin type 2: novel structural scaffolds” (J Med Chem, 2006).

The target in the assay is T1, NAD-dependent protein deacetylase sirtuin-2 (Homo sapiens, UniProt Q8IXJ6).
T1 sequence (Q8IXJ6 whole entry): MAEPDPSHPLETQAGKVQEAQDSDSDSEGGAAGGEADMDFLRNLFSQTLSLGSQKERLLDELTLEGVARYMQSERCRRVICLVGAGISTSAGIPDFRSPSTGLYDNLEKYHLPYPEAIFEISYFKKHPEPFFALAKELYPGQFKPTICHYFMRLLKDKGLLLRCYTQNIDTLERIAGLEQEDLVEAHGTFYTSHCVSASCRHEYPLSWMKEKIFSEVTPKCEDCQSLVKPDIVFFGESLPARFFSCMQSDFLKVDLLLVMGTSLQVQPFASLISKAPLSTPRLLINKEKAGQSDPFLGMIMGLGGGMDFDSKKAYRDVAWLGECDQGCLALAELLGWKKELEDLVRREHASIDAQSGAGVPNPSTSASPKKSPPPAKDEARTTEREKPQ
Nature of the assay: Inhibition of human recombinant SIRT2.
Turning to `CC1(C)CCC(C)(C)c2cc(-c3csc(C4CCN(Cc5ccc(N(CCC#N)CCC#N)cc5)CC4)n3)ccc21`, the IC50 turned out to be 136 µM.
With `OCc1cccc(/C=N/c2cc(/N=C/c3cccc(CO)c3O)cc(C(F)(F)F)c2)c1O`, the IC50 amounted to 91 µM.
To `CCCCC(CC)COCCCNC(=O)CCC(C)(c1ccc(O)cc1)c1ccc(O)cc1` (stereo not drawn) belongs 200 µM.
